US20240024317A1, “CANCER TREATMENT USING BOSENTAN IN COMBINATION WITH A CHECKPOINT INHIBITOR” (Materia Therapeutics Inc., priority 2020, published 2024)

How the values were obtained:
Assay type in all cases: in vivo, mice
4T1 tumors = test: Dynamic contrast-enhanced ultrasound (DCEUS) perfusion measures; settings: bosentan treated versus control or immunotherapy cocktail only
Experimental: Dynamic contrast-enhanced ultrasound (DCEUS). Tumor associated vascular perfusion was assessed with DCEUS after bolus injection of contrast agents (8 μl of sulphur hexafluoride microbubbles encapsulated by a phospholipid shell with a mean diameter of 2.5 μm, retro-orbital administration). Ultrasound scanning of tumor was performed using the L12-5 transducer. Contrast first harmonic signals were received at 8 MHz with a mechanical index of 0.06. For all subjects the depth was set to 3 cm allowing measurements of the full depth of the tumor. Gain was set at 90% for each recording. Focus was optimized and standardized for each subject when finding the tumor area using B-mode imaging. Real-time power modulation imaging was started after flashing imaging with a high mechanical index to destroy the microbubbles in tumor tissue to peak contrast intensity to allow visualization of bubble replenishment. Image analysis was performed offline using an ultrasound quantification and analysis software (QLAB, Phillips Medical Systems). From the produced time intensity curves, we used as measures of perfusion the Mean transit time and the time required to reach the peak intensity (Rise time). […]

E0771 tumors [1] = test: Atomic force microscopy (AFM) Young's modulus and stiffness fingerprint of excised tumors
E0771 tumors [2] = test: Interstitial fluid pressure (IFP), wick-in-needle technique; settings: 1 mg/kg bosentan
Experimental: Mice bearing syngeneic, orthotopic triple negative breast cancer (TNBC) were treated with a range of sub-therapeutic doses of bosentan, from 0.2 mg/kg to 10 mg/kg of body weight. Orthotopic models for murine mammary tumors were generated by implantation of 5×10^4 4T1 or E0771 cancer cells in 40 μl of serum-free medium into the third mammary fat pad of 6-8-week-old BALB/c and C57BL/6 female mice, respectively. 4T1 (ATCC® CRL-2539TH) and E0771 (94A001, CH3 BioSystems) mouse breast adenocarcinoma cell lines were purchased form ATCC and CH3 BioSystems, respectively. The cells were maintained at 37° C./5% CO2 in Roswell Park Memorial Institute medium (RPMI-1640, LM-R1637, Biosera) supplemented with 10% fetal bovine serum (FBS, FB-1001H, biosera) and 1% antibiotics (A5955, Sigma). Bosentan (bosentan Hydrate (S3051, Selleckchem) was dissolved in ddH2O containing 2% DMSO (GK2245, Glentham Life Science), 30% PEG300 (S6704, Selleckchem) and 2% Tween 80 (S6702, Selleckchem)) 1 mg/kg, 5 mg/kg, 10 mg/kg or equal volume of diluent (control group) was administered by intraperitoneal injection (i.p.) once a day for 10 days, starting from once the tumor volumes reached an average size of 100 mm^3. Tumors were excised when they reached an average size of 500 mm^3. Tissue stiffness was then measured non-invasively and longitudinally using ultrasound elastography. […]

COc1ccccc1Oc1c(NS(=O)(=O)c2ccc(C(C)(C)C)cc2)nc(-c2ncccn2)nc1OCCO [bosentan, 4-tert-butyl-N-[6-(2-hydroxy-ethoxy)-5-(2-methoxy-phenoxy)-2-(pyrimidin-2-yl)pyrimidin-4-yl] benzenesulfonamide]
mean transit time (DCEUS) (4T1 tumors): higher
rise time (DCEUS) (4T1 tumors): higher
tissue stiffness, Young's modulus by atomic force microscopy (E0771 tumors [1]; 1 mg/kg daily bosentan, excised E0771 tumors): confirmed
mechanical fingerprint of the tissue (AFM stiffness histogram) (E0771 tumors [1]; tumors treated with 1 mg/kg): large contribution from cancer cells and little contribution from collagen
mechanical fingerprint of the tissue (AFM stiffness histogram) (E0771 tumors [1]; tumors treated with 10 mg/kg): heterogenous collagen contribution
interstitial fluid pressure (E0771 tumors [2]): decrease in interstitial fluid pressure
